# Experimental data published in ChEMBL document CHEMBL1156202, “The effect of the pyridyl nitrogen position in pyridylpiperazine sigma ligands” (Bioorg Med Chem Lett, 2010).
# Key:
# [1] = molecular target: Sigma non-opioid intracellular receptor 1 (Rattus norvegicus, UniProt Q9R0C9); test: Displacement of [3H](+)-pentazocine from rat brain membrane sigma 1receptor after 120 mins
# [2] = Displacement of [3H]di-O-tolylguanidine from rat brain membrane sigma 2 receptor after 120 mins in the presence of (+)-pentazocin
# [3] = organism: Rattus norvegicus; test: Selectivity ratio of Ki for rat brain membrane sigma 1receptor to Ki for rat brain membrane sigma 2 receptor
# Sequence of Sigma non-opioid intracellular receptor 1 (Q9R0C9 whole entry): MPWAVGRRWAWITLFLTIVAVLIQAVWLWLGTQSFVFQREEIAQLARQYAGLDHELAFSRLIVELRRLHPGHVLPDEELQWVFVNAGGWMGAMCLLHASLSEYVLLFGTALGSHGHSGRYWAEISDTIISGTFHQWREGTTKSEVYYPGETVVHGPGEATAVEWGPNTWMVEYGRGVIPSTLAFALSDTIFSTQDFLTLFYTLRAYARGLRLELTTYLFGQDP
Compound,Ki [1] [nM],Ki [2] [nM],Ratio Ki [3]
c1ccc(CCCN2CCN(c3ccncc3)CC2)cc1,34.2,84,0.41
c1ccc(CCN2CCN(c3ccccn3)CC2)cc1,,119,2.7
c1ccc(CCN2CCN(c3cccnc3)CC2)cc1,97.2,440,0.22
c1ccc(CCCN2CCN(c3ccccn3)CC2)cc1,,4.91,16.9
c1ccc(CCCN2CCN(c3cccnc3)CC2)cc1,21.2,110,0.19
c1ccc(CCN2CCN(c3ccncc3)CC2)cc1,41.8,69.7,0.6
